In patent publication US20170233345A1, “SUBSTITUTED QUINOLINE-4-CARBOXAMIDES AND USE THEREOF” (BAYER PHARMA AKTIENGESELLSCHAFT, priority 2014, published 2017):

System: recombinant guanylate cyclase reporter cell line
Assay: Effect on a recombinant guanylate cyclase reporter cell line
Format: cell-based
Details: in some cases mean values from individual determinations, read-out: MEC (minimum effective concentration)
Experimental: B-2. Effect on a Recombinant Guanylate Cyclase Reporter Cell Line
The cellular activity of the compounds according to the invention is determined using a recombinant guanylate cyclase reporter cell line, as described in F. Wunder et al., Anal. Biochem. 339, 104-112 (2005).
Representative MEC values (MEC=minimum effective concentration) for the compounds of the invention are shown in the table below (in some cases as mean values from individual determinations): […]

Compound	minimal effective concentration
CCCC[C@H](CO)NC(=O)c1cc(C)nc2c(OCc3c(F)cccc3F)cccc12 [Example 46, ent-8-[(2,6-Difluorobenzyl)oxy]-N-[(2R)-1-hydroxyhexan-2-yl]-2-methylquinoline-4-carboxamide (Enantiomer)]	2 µM
O=C(N[C@H]1CCOC1=O)c1ccnc2c(OCc3c(F)cccc3F)cccc12 [Example 24]	10 µM
Cc1cc(OCc2c(F)cccc2F)c2nccc(C(=O)NCC(C)(N)CCC(F)(F)F)c2c1 (single isomer, unassigned; enantiomer b) [Example 45, ent-N-(2-Amino-5,5,5-trifluoro-2-methylpentyl)-8-[(2,6-difluorobenzyl)oxy]-6-methylquinoline-4-carboxamide (Enantiomer B)]	0.65 µM
